These are literature values, as cited in patent US20070031352A1, “Powdery preparations containing diethylamino-hydroxybenzoyl-hexyl-benzoate” (BASF Aktiengesellschaft, priority 2003, published 2007).

For the data set the following is noted: at 354 nm.

As for `CCCCCCOC(=O)c1ccccc1C(=O)c1ccc(N(CC)CC)cc1O` [Uvinul® A Plus, diethylamino hydroxybenzoyl hexyl benzoate], the absorbance coefficient was 940.
